Data on 50 compounds can be found in patent publication EP3928779A1 (Chugai Seiyaku Kabushiki Kaisha, priority 2014, dated 2016).

The subject of the test is rat small-intestinal brush border membrane vesicles. Briefly: Inhibitory effect on 33PO4 uptake into rat small-intestinal brush border membrane vesicles (rapid filtration method). In kind it is biochemical. To be noted: 33PO4 uptake into rat small-intestinal BBMVs; test compound 1 µM; reacted for 60 seconds. The gist of the method: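 Uptake of ^33PO4 was measured by rapid filtration and liquid scintillation counting of filter-retained vesicles, after quenching with ice-cold 110 mM NaCl/1 mM KH2PO4/10 mM HEPES pH 7.5. Vesicles were brush border membranes from the upper small intestine of female Wistar rats aged 4–5 weeks.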

On to `C[C@]12CCCN1N(Cc1ccc(Br)cc1F)C(=O)C(C(=O)Nc1cc(F)c(Br)c(F)c1)=C2O` [Example 166, (4aR)-N-(4-Bromo-3,5-difluorophenyl)-1-[(4-bromo-2-fluorophenyl)methyl]-4-hydroxy-4a-methyl-2-oxo-6,7-dihydro-5H-pyrrolo[1,2-b]pyridazine-3-carboxamide], for which the “Rate of uptake inhibition (%) (1 µM)” value came out at 73%. Turning to `C[C@]12CCCN1N(Cc1cccc(OC(F)F)c1)C(=O)C(C(=O)Nc1ccc(C(F)(F)F)cc1-c1ccc(C(F)(F)F)nc1)=C2O` [Example 167], the “Rate of uptake inhibition (%) (1 µM)” value was found to be 73%. As for `C[C@]12CCCN1N(Cc1ccccc1Cl)C(=O)C(C(=O)Nc1ccc(C(F)(F)F)cc1-c1ccc(C(F)(F)F)nc1)=C2O` [Example 168], the “Rate of uptake inhibition (%) (1 µM)” value was 72%. As to `C[C@]12CCCN1N(Cc1cccc(Cl)c1)C(=O)C(C(=O)Nc1ccc(C(F)(F)F)cc1-c1ccc(C(F)(F)F)nc1)=C2O` [Example 169], the “Rate of uptake inhibition (%) (1 µM)” value is on record as 73%. As to `C[C@]12CCCN1N(Cc1ccc(F)c(F)c1)C(=O)C(C(=O)Nc1ccc(C(F)(F)F)cc1-c1ccc(C(F)(F)F)nc1)=C2O` [Example 170], the “Rate of uptake inhibition (%) (1 µM)” value worked out at 73%.

Regarding `C[C@]12CCCN1N(Cc1cc(F)cc(F)c1)C(=O)C(C(=O)Nc1ccc(C(F)(F)F)cc1-c1ccc(C(F)(F)F)nc1)=C2O` [Example 171], the “Rate of uptake inhibition (%) (1 µM)” value amounted to 78%.

Take `C[C@]12CCCN1N(Cc1cc(F)ccc1F)C(=O)C(C(=O)Nc1ccc(C(F)(F)F)cc1-c1ccc(C(F)(F)F)nc1)=C2O` [Example 172]: the “Rate of uptake inhibition (%) (1 µM)” value was found to be 72%. Take `C[C@]12CCCN1N(Cc1ccc(F)cc1F)C(=O)C(C(=O)Nc1ccc(C(F)(F)F)cc1-c1ccc(C(F)(F)F)nc1)=C2O` [Example 173]: the “Rate of uptake inhibition (%) (1 µM)” value stood at 73%. In the case of `C[C@]12CCCN1N(Cc1cccc(F)c1Cl)C(=O)C(C(=O)Nc1cc(F)c(Br)c(F)c1)=C2O` [Example 174], the “Rate of uptake inhibition (%) (1 µM)” value is 87%.

On to `COc1cccc(CN2C(=O)C(C(=O)Nc3ccc(C(F)(F)F)cc3-c3ccc(C(F)(F)F)nc3)=C(O)[C@@]3(C)CCCN23)c1OC` [Example 175], for which the “Rate of uptake inhibition (%) (1 µM)” value is recorded as 85%. Turning to `COc1ccc(OC)c(CN2C(=O)C(C(=O)Nc3ccc(C(F)(F)F)cc3-c3ccc(C(F)(F)F)nc3)=C(O)[C@@]3(C)CCCN23)c1` [Example 176], the “Rate of uptake inhibition (%) (1 µM)” value is recorded as 75%. As for `C[C@]12CCCN1N(Cc1cccc(OC(F)F)c1)C(=O)C(C(=O)Nc1ccc(C(F)(F)F)cc1-c1cc(C(F)(F)F)ncn1)=C2O` [Example 177], the figure is 85%. On to `C[C@]12CCCN1N(Cc1ccccc1C#N)C(=O)C(C(=O)Nc1ccc(C(F)(F)F)cc1-c1cc(C(F)(F)F)ncn1)=C2O` [Example 178], for which the “Rate of uptake inhibition (%) (1 µM)” value turned out to be 81%. To `C[C@]12CCCN1N(Cc1cccc(C#N)c1)C(=O)C(C(=O)Nc1ccc(C(F)(F)F)cc1-c1cc(C(F)(F)F)ncn1)=C2O` [Example 179] belongs 83%; to `C[C@]12CCCN1N(Cc1ccccc1Cl)C(=O)C(C(=O)Nc1ccc(C(F)(F)F)cc1-c1cc(C(F)(F)F)ncn1)=C2O` [Example 180], 75%. Consider `C[C@]12CCCN1N(Cc1cccc(Cl)c1)C(=O)C(C(=O)Nc1ccc(C(F)(F)F)cc1-c1cc(C(F)(F)F)ncn1)=C2O` [Example 181], for which the “Rate of uptake inhibition (%) (1 µM)” value is recorded as 85%. Turning to `C[C@]12CCCN1N(Cc1ccc(Cl)cc1)C(=O)C(C(=O)Nc1ccc(C(F)(F)F)cc1-c1cc(C(F)(F)F)ncn1)=C2O` [Example 182], the “Rate of uptake inhibition (%) (1 µM)” value is listed as 86%. For the compound `COC(=O)c1cccc(CN2C(=O)C(C(=O)Nc3ccc(C(F)(F)F)cc3-c3cc(C(F)(F)F)ncn3)=C(O)[C@@]3(C)CCCN23)c1` [Example 183], the “Rate of uptake inhibition (%) (1 µM)” value is listed as 82%. In the case of `C[C@]12CCCN1N(Cc1ccc(F)c(Br)c1)C(=O)C(C(=O)Nc1ccc(C(F)(F)F)cc1-c1cc(C(F)(F)F)ncn1)=C2O` [Example 184], the “Rate of uptake inhibition (%) (1 µM)” value amounted to 79%. To `Cc1ccccc1CN1C(=O)C(C(=O)Nc2ccc(C(F)(F)F)cc2-c2cc(C(F)(F)F)ncn2)=C(O)[C@@]2(C)CCCN12` [Example 185] belongs 83%. `Cc1cccc(CN2C(=O)C(C(=O)Nc3ccc(C(F)(F)F)cc3-c3cc(C(F)(F)F)ncn3)=C(O)[C@@]3(C)CCCN23)c1` [Example 186]: the “Rate of uptake inhibition (%) (1 µM)” value worked out at 88%. Regarding `Cc1ccc(CN2C(=O)C(C(=O)Nc3ccc(C(F)(F)F)cc3-c3cc(C(F)(F)F)ncn3)=C(O)[C@@]3(C)CCCN23)cc1` [Example 187], the “Rate of uptake inhibition (%) (1 µM)” value stood at 80%.

Regarding `C[C@]12CCCN1N(Cc1ccccc1)C(=O)C(C(=O)Nc1ccc(C(F)(F)F)cc1-c1cc(C(F)(F)F)ncn1)=C2O` [Example 188], the “Rate of uptake inhibition (%) (1 µM)” value is given as 93%.

For the compound `C[C@]12CCCN1N(Cc1cccc(OC(F)(F)F)c1)C(=O)C(C(=O)Nc1ccc(C(F)(F)F)cc1-c1cc(C(F)(F)F)ncn1)=C2O` [Example 189], the “Rate of uptake inhibition (%) (1 µM)” value is on record as 73%. Take `C[C@]12CCCN1N(Cc1cc(F)cc(F)c1)C(=O)C(C(=O)Nc1cc(F)c(Br)c(F)c1)=C2O` [Example 190]: the “Rate of uptake inhibition (%) (1 µM)” value is 84%. Take `C[C@]12CCCN1N(Cc1ccc(F)c(F)c1)C(=O)C(C(=O)Nc1cc(F)c(Br)c(F)c1)=C2O` [Example 191]: the “Rate of uptake inhibition (%) (1 µM)” value is 87%. As for `C[C@]12CCCN1N(Cc1ccc(F)cc1F)C(=O)C(C(=O)Nc1cc(F)c(Br)c(F)c1)=C2O` [Example 192], the figure is 88%; as for `C[C@]12CCCN1N(Cc1cc(F)ccc1F)C(=O)C(C(=O)Nc1cc(F)c(Br)c(F)c1)=C2O` [Example 193], 82%; as for `C[C@]12CCCN1N(Cc1cc(F)c(F)cc1F)C(=O)C(C(=O)Nc1cc(F)c(Br)c(F)c1)=C2O` [Example 194], 80%. Consider `Cc1cccc(CN2C(=O)C(C(=O)Nc3cc(F)c(Br)c(F)c3)=C(O)[C@@]3(C)CCCN23)c1F` [Example 195], for which the “Rate of uptake inhibition (%) (1 µM)” value worked out at 76%.

In the case of `C[C@]12CCCN1N(Cc1cc(F)c(F)c(F)c1)C(=O)C(C(=O)Nc1cc(F)c(Br)c(F)c1)=C2O` [Example 197], the “Rate of uptake inhibition (%) (1 µM)” value is reported as 82%. Regarding `C[C@]12CCCN1N(Cc1cccc(Cl)c1F)C(=O)C(C(=O)Nc1ccc(C(F)(F)F)cc1-c1ccc(C(F)(F)F)nc1)=C2O` [Example 198], the “Rate of uptake inhibition (%) (1 µM)” value amounted to 75%.

Turning to `C[C@]12CCCN1N(Cc1ccc(F)cc1)C(=O)C(C(=O)Nc1ccc(C(F)(F)F)cc1-c1ccc(C(F)(F)F)nc1)=C2O` [Example 199], the “Rate of uptake inhibition (%) (1 µM)” value is given as 79%.

In the case of `C[C@]12CCCN1N(Cc1ccccc1F)C(=O)C(C(=O)Nc1ccc(C(F)(F)F)cc1-c1ccc(C(F)(F)F)nc1)=C2O` [Example 200], the “Rate of uptake inhibition (%) (1 µM)” value is recorded as 80%. As to `C[C@]12CCCN1N(Cc1cccc(F)c1Cl)C(=O)C(C(=O)Nc1ccc(C(F)(F)F)cc1-c1ccc(C(F)(F)F)nc1)=C2O` [Example 201], the “Rate of uptake inhibition (%) (1 µM)” value is listed as 77%. For the compound `COc1cc(CN2C(=O)C(C(=O)Nc3ccc(C(F)(F)F)cc3-c3ccc(C(F)(F)F)nc3)=C(O)[C@@]3(C)CCCN23)cc(OC)c1` [Example 202], the “Rate of uptake inhibition (%) (1 µM)” value is 75%.

On to `C[C@]12CCCN1N(Cc1c(F)cccc1F)C(=O)C(C(=O)Nc1ccc(C(F)(F)F)cc1-c1ccc(C(F)(F)F)nc1)=C2O` [Example 203], for which the “Rate of uptake inhibition (%) (1 µM)” value is 91%. On to `C[C@]12CCCN1N(Cc1c(F)cccc1Cl)C(=O)C(C(=O)Nc1ccc(C(F)(F)F)cc1-c1ccc(C(F)(F)F)nc1)=C2O` [Example 204], for which the “Rate of uptake inhibition (%) (1 µM)” value was 87%. As for `Cc1cccc(CN2C(=O)C(C(=O)Nc3ccc(C(F)(F)F)cc3-c3ccc(C(F)(F)F)nc3)=C(O)[C@@]3(C)CCCN23)c1F` [Example 205], the “Rate of uptake inhibition (%) (1 µM)” value worked out at 86%. Turning to `C[C@]12CCCN1N(Cc1cccc(F)c1)C(=O)C(C(=O)Nc1ccc(C(F)(F)F)cc1-c1ccc(C(F)(F)F)nc1)=C2O` [Example 206], the “Rate of uptake inhibition (%) (1 µM)” value is 76%. As for `C[C@]12CCCN1N(Cc1ccccc1F)C(=O)C(C(=O)Nc1ccc(C(F)(F)F)cc1-c1cc(C(F)(F)F)ncn1)=C2O` [Example 207], the “Rate of uptake inhibition (%) (1 µM)” value came out at 73%. As to `C[C@]12CCCN1N(Cc1ccc(F)cc1)C(=O)C(C(=O)Nc1ccc(C(F)(F)F)cc1-c1cc(C(F)(F)F)ncn1)=C2O` [Example 208], the “Rate of uptake inhibition (%) (1 µM)” value worked out at 90%. With `C[C@]12CCCN1N(Cc1cccc(Cl)c1F)C(=O)C(C(=O)Nc1ccc(C(F)(F)F)cc1-c1cc(C(F)(F)F)ncn1)=C2O` [Example 209], the “Rate of uptake inhibition (%) (1 µM)” value worked out at 76%. Consider `C[C@]12CCCN1N(Cc1c(F)cccc1Cl)C(=O)C(C(=O)Nc1ccc(C(F)(F)F)cc1-c1cc(C(F)(F)F)ncn1)=C2O` [Example 210], for which the “Rate of uptake inhibition (%) (1 µM)” value came to 71%. On to `C[C@]12CCCN1N(Cc1cc(Cl)ccc1F)C(=O)C(C(=O)Nc1ccc(C(F)(F)F)cc1-c1cc(C(F)(F)F)ncn1)=C2O` [Example 211], for which the “Rate of uptake inhibition (%) (1 µM)” value amounted to 72%. For `C[C@]12CCCN1N(Cc1c(F)cccc1F)C(=O)C(C(=O)Nc1ccc(C(F)(F)F)cc1-c1cc(C(F)(F)F)ncn1)=C2O` [Example 212], the “Rate of uptake inhibition (%) (1 µM)” value is 98%.

On to `C[C@]12CCCN1N(Cc1cc(F)cc(F)c1)C(=O)C(C(=O)Nc1ccc(C(F)(F)F)cc1-c1cc(C(F)(F)F)ncn1)=C2O` [Example 213], for which the “Rate of uptake inhibition (%) (1 µM)” value came to 79%. `C[C@]12CCCN1N(Cc1ccc(F)c(F)c1)C(=O)C(C(=O)Nc1ccc(C(F)(F)F)cc1-c1cc(C(F)(F)F)ncn1)=C2O` [Example 214]: the “Rate of uptake inhibition (%) (1 µM)” value amounted to 91%. Turning to `Cc1cccc(CN2C(=O)C(C(=O)Nc3ccc(C(F)(F)F)cc3-c3cc(C(F)(F)F)ncn3)=C(O)[C@@]3(C)CCCN23)c1F` [Example 215], the “Rate of uptake inhibition (%) (1 µM)” value was 86%. Take `C[C@]12CCCN1N(Cc1ccccc1C#N)C(=O)C(C(=O)Nc1cc(F)c(Br)c(F)c1)=C2O` [Example 218]: the “Rate of uptake inhibition (%) (1 µM)” value is 82%.
